Assays:
Rhipicephalus sanguineus = experiment: Parasite extermination test of dog in vivo, R. sanguineus
Experimental: Each type of the test compounds was applied to four dogs. One day before treatment (−1 day) of the test compound, about 50 adults of Rhipicephalus sanguineus to which food was not given, per dog, were parasitized. It was estimated that 50% of the 50 ticks were male and 50% of the 50 ticks were female. Separately, the tested compound was dissolved in a mixed solvent consisting of 80% by volume of benzyl alcohol and 20% by volume of isopropyl myristate such that the concentration became 50 mg/ml, whereby a test solution was prepared. On zeroth day, several different spots of the interscapular region were treated with the test solution by “topical spot-on” such that the test compound was treated per 20 mg/kg per body weight of a dog. For comparison, a negative control was also prepared. In order to evaluate the treatment against the parasitized ticks, survival of the ticks were observed on the 2nd day (48 hours after the treatment). To evaluate the durability, on the 5th, 12th, 19th, and 28th day, 50 ticks to which food was not given, per dog, were parasitized again. On the 7th, 14th, 21 st, 30th and 35th day, 48 hours after each was parasitized, survival of the ticks and mites were observed, and the ticks and mites were removed from the dogs. The ticks were classified according to whether or not the ticks were attached, and the survival state was determined. In the evaluation of efficacy, the same geometric mean calculation as that in Test Example 2 was used. […] In addition, for Test Compound 1 to 32, the test compounds were treated per 5 mg/kg per body weight of an individual with respect to a dog.

[1] = system: fleas (Ctenocephalides felis); experiment: Parasite extermination test of dog in vivo, C. felis; details: topical spot-on 20 mg/kg
Experimental: Each type of the test compounds was applied to four dogs. One day before treatment (−1 day) of the test compound, about 50 adults of Rhipicephalus sanguineus to which food was not given, per dog, were parasitized. It was estimated that 50% of the 50 ticks were male and 50% of the 50 ticks were female.
Separately, the tested compound was dissolved in a mixed solvent consisting of 80% by volume of benzyl alcohol and 20% by volume of isopropyl myristate such that the concentration became 50 mg/ml, whereby a test solution was prepared.
On zeroth day, several different spots of the interscapular region were treated with the test solution by “topical spot-on” such that the test compound was treated per 20 mg/kg per body weight of a dog. For comparison, a negative control was also prepared.
In addition, on the 12th and 28th day, 50 adult fleas (Ctenocephalides felis) to which food was not given were parasitized together.
On the 7th, 14th, 21 st, 30th and 35th day, 48 hours after each was parasitized, survival of the ticks and mites were observed, and the ticks and mites were removed from the dogs. The ticks were classified according to whether or not the ticks were attached, and the survival state was determined.
In the evaluation of efficacy, the same geometric mean calculation as that in Test Example 2 was used.

[2] = system: American dog mites (Dermacentor variabilis) in nymph stage; experiment: Acaricidal test of rodent (RAT) in vivo; details: Sprague-Dawley rat, topical 0.05 ml in acetone, effective component concentration of 1% or less (10 mg/ml), 48 hours after the treatment, read-out: efficacy (reduction % in the number of surviving mites)
Description: Evaluation of the test compounds can be performed by a method obtained by modifying the analysis method described in “J. Med. Entomol. 43 (3) 526-532 (2006)”. In the analysis method, other mite species (in references, described as a mite of Amblyomma americanum) can be also used, and, for example, other mite species such as a mite of Dermacentor variabilis can be also used. A mite-holding unit (which was configured of small size nipples, a crew cap with a vent, and a reinforcing rubber washer) was attached to the back of an adult Sprague-Dawley rat. After attaching the holding unit, 0.05 ml of a test compound dissolved in acetone was applied topically on the skin surface inside the holding unit. After leaving to stand for a sufficient period of time to evaporate the acetone, about 10 American dog mites (Dermacentor variabilis) in nymph stage, to which food was not given, were put into each holding unit. Three to five rats per treatment group were used. 48 hours after the treatment, the holding unit was removed, and the surviving mites and dead mites were counted. In the evaluation of efficacy, geometric mean calculation was used. First, the total number of surviving mites was converted by the natural logarithm transformation by adding 1 (Ln total number+1). That is, by adding 1 to each total number, the total number which was zero was adjusted. The geometric mean (GM) of the total number of mites in a treatment group was obtained by inverse-transforming the mean transformation value of the total number of treatment groups and subtracting 1. The non-treated control group was used for comparison with the groups in which the test compound was given for calculation of efficacy % (reduction % in the number of surviving mites). […] Efficacy [%]=[(survival mites GM number of control−survival mites GM number of treatment groups)/(survival mites GM number of control)×100

[3] = system: American dog mites (Dermacentor variabilis); experiment: Parasite extermination test of dog in vivo, D. variabilis; details: topical spot-on 20 mg/kg, 35th day
Experimental: Each type of the test compounds was applied to four dogs. One day before treatment (−1 day) of the test compound, about 50 adults of Rhipicephalus sanguineus to which food was not given, per dog, were parasitized. It was estimated that 50% of the 50 ticks were male and 50% of the 50 ticks were female. Separately, the tested compound was dissolved in a mixed solvent consisting of 80% by volume of benzyl alcohol and 20% by volume of isopropyl myristate such that the concentration became 50 mg/ml, whereby a test solution was prepared. On zeroth day, several different spots of the interscapular region were treated with the test solution by “topical spot-on” such that the test compound was treated per 20 mg/kg per body weight of a dog. For comparison, a negative control was also prepared. Furthermore, on the 33rd day, 50 adult American dog mites (Dermacentor variabilis) to which food was not given were parasitized. On the 7th, 14th, 21 st, 30th and 35th day, 48 hours after each was parasitized, survival of the ticks and mites were observed, and the ticks and mites were removed from the dogs. The ticks were classified according to whether or not the ticks were attached, and the survival state was determined. In the evaluation of efficacy, the same geometric mean calculation as that in Test Example 2 was used. As the test compounds, 1-3, 1-5, 1-10, 1-28, 1-29, and 1-71 were used. Here, the test using American dog mites was performed on 1-28 and 1-71.

[4] = topical spot-on 20 mg/kg, 2nd day
[5] = topical spot-on 20 mg/kg, 7th day
[6] = topical spot-on 20 mg/kg, 14th day
[7] = topical spot-on 20 mg/kg, 21st day
[8] = topical spot-on 20 mg/kg, 30th day
[9] = 5 mg/kg per body weight, 2nd day
[10] = 5 mg/kg per body weight, 5th day

Row | SMILES | average number of surviving parasites (Rhipicephalus sanguineus; [4]) | efficacy (%) (Rhipicephalus sanguineus; [4]) | average number of surviving parasites (Rhipicephalus sanguineus; [5]) | efficacy (%) (Rhipicephalus sanguineus; [5]) | average number of surviving parasites (Rhipicephalus sanguineus; [6]) | efficacy (%) (Rhipicephalus sanguineus; [6]) | average number of surviving parasites (Rhipicephalus sanguineus; [7]) | efficacy (%) (Rhipicephalus sanguineus; [7]) | average number of surviving parasites (Rhipicephalus sanguineus; [8]) | efficacy (%) (Rhipicephalus sanguineus; [8]) | average number of surviving parasites ([1]; 14th day) | efficacy (%) ([1]; 14th day) | average number of surviving parasites ([1]; 30th day) | efficacy (%) ([1]; 30th day) | pest or weed control at up to 10000 µg/mL [2] [%] | further results
1 | C=C1SC(=N\c2ccc(C)cc2)/C(=C/Sc2cccs2)C(C)C1(C)C (stereo not shown) [Compound 1-29] | 1.3 | 97.3 | 0 | 100 | 0 | 100 | 0 | 100 | 0 | 100 | 0 | 100 | 0 | 100 | ≥ 50 | 
2 | C=C1SC(=N\c2ccc(C)cc2)/C(=C/Sc2ccccc2)CC12CCCCC2 [Compound 1-5] | 0 | 100 | 0 | 100 | 0 | 100 | 1.8 | 95.4 | 6.5 | 86.8 | 0 | 100 | 8.8 | 98.2 | ≥ 50 | 
3 | C=C1SC(=N\c2ccc(C)cc2)/C(=C/Sc2ccccc2)C(C)C1(C)C (stereo not shown) [Compound 1-28] | 0.25 | 99.3 | 0 | 100 | 0 | 100 | 0 | 100 | 1.8 | 97.8 | 0 | 100 | 0 | 100 | ≥ 50 | average number of surviving parasites [3]: 7.0; efficacy (%) [3]: 88.3%
4 | Cc1ccc(/N=C2\SC(C)(C)CC\C2=C/Sc2ccccc2F)cc1 [Compound 1-32] |  |  |  |  |  |  |  |  |  |  |  |  |  |  | ≥ 50 | average number of surviving parasites (Rhipicephalus sanguineus; [9]): 0; efficacy (%) (Rhipicephalus sanguineus; [9]): (76.6%); average number of surviving parasites (Rhipicephalus sanguineus; [10]): 0; efficacy (%) (Rhipicephalus sanguineus; [10]): (100%)
5 | CC(C)=C1CC(C)C(=C\SCc2ccc(Cl)cc2)/C(=N/c2ccc(C)cc2)S1 (stereo not shown) [Compound 1-71] | 5.0 | 90 | 0 | 100 | 0 | 100 | 1.8 | 96.9 | 0 | 86.8 | 0 | 100 | 0 | 100 | ≥ 50 | average number of surviving parasites [3]: 9.8; efficacy (%) [3]: 80.3%
6 | C=C1SC(=N\c2ccc(C)cc2)/C(=C/Sc2ccccc2)CC1(C)C [Compound 1-3] | 0.5 | 98.6 | 0 | 100 | 0 | 100 | 0 | 100 | 6.0 | 92.3 | 0 | 100 | 0 | 100 | ≥ 50 | 
7 | C=C1SC(=N\c2ccc(C)cc2)/C(=C/Sc2cccs2)CC1(C)C [Compound 1-10] | 0.5 | 98.9 | 0 | 100 | 0 | 100 | 0.5 | 99.5 | 4.3 | 95.4 | 0 | 100 | 0 | 100 | ≥ 50 | 
8 | Cc1ccc(/N=C2\SC(C)(C)CC\C2=C/Sc2cccc(C)c2)cc1 [Compound 1-31] |  |  |  |  |  |  |  |  |  |  |  |  |  |  | ≥ 50 | 

— patent publication US9474740B2, “Ectoparasite control agent” (Nippon Soda Co., Ltd., priority 2013, dated 2016)
